{
  "source": "ChEMBL document CHEMBL5325413",
  "about": "“Optimization of BAX trigger site activator BTSA1 with improved antitumor potency and in vitro ADMET properties” (Eur J Med Chem, 2023)",
  "key": {"[1]": {"experiment": "Stability in rat plasma assessed as compound remaining measured after 120 mins", "assay_type": "ADME, cell-free", "conditions": "read-out: Stability"}, "A549 [2]": {"test_system": "A549", "experiment": "Induction of apoptosis in human A549 cells assessed as cell rounding at 2.5 to 10 uM incubated for 48 hrs by Hoechst 33342 staining based fluorescence microscopic analysis", "assay_type": "functional", "conditions": "dose 2.5-10 µM"}, "A549 [3]": {"test_system": "A549", "experiment": "Induction of apoptosis in human A549 cells assessed as live cells at 10 uM incubated for 48 hrs by Annexin V-FITC/PI staining based flow cytometry analysis (reference value: 96.4%)", "assay_type": "functional"}, "in vitro": {"experiment": "in vitro", "conditions": "mouse, liver microsomes"}, "Cytochrome P450 2C19": {"target": "Cytochrome P450 2C19 (Homo sapiens, UniProt P33261)", "sequence (P33261 whole entry)": "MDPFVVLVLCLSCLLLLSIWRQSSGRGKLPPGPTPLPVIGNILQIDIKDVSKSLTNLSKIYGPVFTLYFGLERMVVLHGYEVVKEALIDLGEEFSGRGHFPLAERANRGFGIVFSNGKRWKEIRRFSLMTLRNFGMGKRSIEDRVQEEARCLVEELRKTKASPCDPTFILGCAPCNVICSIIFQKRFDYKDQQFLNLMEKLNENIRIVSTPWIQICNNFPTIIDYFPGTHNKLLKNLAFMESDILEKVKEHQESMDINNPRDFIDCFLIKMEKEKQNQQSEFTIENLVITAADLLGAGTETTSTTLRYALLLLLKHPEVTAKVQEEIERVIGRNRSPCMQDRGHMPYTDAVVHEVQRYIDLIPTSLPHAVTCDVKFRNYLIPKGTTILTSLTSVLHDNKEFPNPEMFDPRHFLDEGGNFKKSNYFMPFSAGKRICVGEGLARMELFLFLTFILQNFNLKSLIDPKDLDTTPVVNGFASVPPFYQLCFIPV", "experiment": "Inhibition of CYP2C19 in human liver microsomes using S-mephenytoin as substrate prewarmed for 10 mins followed by NADPH addition and measured after 10 mins by LC-MS/MS analysis"}, "A549 [4]": {"test_system": "A549", "experiment": "Induction of cell cycle arrest in human A549 cells assessed as accumulation of cells at G0/G1 phase at 5 uM incubated for 48 hrs by RNase/PI staining based flow cytometry analysis (reference value: 54.82%)", "assay_type": "functional"}, "[5]": {"conditions": "human, microsomes, 1 h, 100 µM"}, "A549 [6]": {"test_system": "A549", "experiment": "Induction of apoptosis in human A549 cells assessed as formation of apoptotic bodies at 2.5 to 10 uM incubated for 48 hrs by Hoechst 33342 staining based fluorescence microscopic analysis", "assay_type": "functional, cell-based", "conditions": "dose 2.5-10 µM"}, "A549 [7]": {"test_system": "A549", "experiment": "Induction of apoptosis in human A549 cells assessed as early apoptotic cells at 5 uM incubated for 48 hrs by Annexin V-FITC/PI staining based flow cytometry analysis (reference value: 1.09 %)", "assay_type": "functional"}, "A549 [8]": {"test_system": "A549", "experiment": "Inhibition of colony formation in human A549 cells incubated for 2 weeks by crystal violet staining based analysis", "assay_type": "functional, cell-based", "conditions": "dose 1-3 µM"}, "[9]": {"experiment": "Drug recovery in mouse liver microsomes at 100 uM incubated for 60 mins in absence of NADPH by LC-MS/MS analysis", "assay_type": "ADME, Microsome", "conditions": "read-out: Drug recovery"}, "Cytochrome P450 2C9": {"target": "Cytochrome P450 2C9 (Homo sapiens, UniProt P11712)", "sequence (P11712 whole entry)": "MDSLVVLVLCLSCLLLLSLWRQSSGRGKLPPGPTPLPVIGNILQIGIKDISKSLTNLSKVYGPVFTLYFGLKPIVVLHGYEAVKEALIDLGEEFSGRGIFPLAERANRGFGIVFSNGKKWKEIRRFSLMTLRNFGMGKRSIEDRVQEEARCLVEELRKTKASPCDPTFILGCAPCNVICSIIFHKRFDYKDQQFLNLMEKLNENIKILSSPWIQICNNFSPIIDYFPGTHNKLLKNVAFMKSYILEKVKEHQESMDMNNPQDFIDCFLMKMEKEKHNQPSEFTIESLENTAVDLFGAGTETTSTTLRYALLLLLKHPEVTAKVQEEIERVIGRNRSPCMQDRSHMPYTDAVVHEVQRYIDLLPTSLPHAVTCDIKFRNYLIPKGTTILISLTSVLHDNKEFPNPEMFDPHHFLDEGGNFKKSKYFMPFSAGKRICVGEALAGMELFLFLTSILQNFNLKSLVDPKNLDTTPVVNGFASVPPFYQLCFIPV", "experiment": "Inhibition of CYP2C9 in human liver microsomes using diclofenac as substrate prewarmed for 10 mins followed by NADPH addition and measured after 10 mins by LC-MS/MS analysis"}, "[10]": {"experiment": "Stability in rat plasma assessed as compound remaining measured after 10 mins", "assay_type": "ADME, cell-free", "conditions": "read-out: Stability"}, "Cytochrome P450 1A2": {"target": "T1, Cytochrome P450 1A2 (Homo sapiens, UniProt P05177)", "T1 sequence (P05177 whole entry)": "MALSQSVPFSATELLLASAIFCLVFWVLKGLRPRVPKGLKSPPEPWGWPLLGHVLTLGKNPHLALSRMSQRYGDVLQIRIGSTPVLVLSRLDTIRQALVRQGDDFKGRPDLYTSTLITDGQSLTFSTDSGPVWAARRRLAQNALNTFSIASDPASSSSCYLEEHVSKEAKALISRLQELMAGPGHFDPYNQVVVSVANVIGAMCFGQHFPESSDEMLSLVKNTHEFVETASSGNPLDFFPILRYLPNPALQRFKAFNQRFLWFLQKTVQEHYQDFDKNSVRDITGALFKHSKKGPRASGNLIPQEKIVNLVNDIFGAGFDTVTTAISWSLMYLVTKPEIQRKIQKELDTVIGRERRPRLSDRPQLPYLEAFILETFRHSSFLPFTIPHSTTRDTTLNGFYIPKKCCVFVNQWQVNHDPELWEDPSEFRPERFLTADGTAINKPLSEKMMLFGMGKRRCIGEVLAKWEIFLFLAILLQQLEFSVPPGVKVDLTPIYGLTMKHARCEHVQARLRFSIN", "experiment": "Inhibition of CYP1A2 in human liver microsomes using phenacetin as substrate prewarmed for 10 mins followed by NADPH addition and measured after 10 mins by LC-MS/MS analysis"}, "MV4-11": {"test_system": "MV4-11", "experiment": "Antiproliferative activity against human MV4-11 cells expressing BAX assessed as cell growth inhibition incubated for 72 hrs by trypan blue cell counting analysis", "assay_type": "functional"}, "[11]": {"conditions": "mouse, microsomes, 1 h, 100 µM"}, "[12]": {"target": "Apoptosis regulator BAX (Homo sapiens) (UniProt Q07812)", "sequence (Q07812 whole entry)": "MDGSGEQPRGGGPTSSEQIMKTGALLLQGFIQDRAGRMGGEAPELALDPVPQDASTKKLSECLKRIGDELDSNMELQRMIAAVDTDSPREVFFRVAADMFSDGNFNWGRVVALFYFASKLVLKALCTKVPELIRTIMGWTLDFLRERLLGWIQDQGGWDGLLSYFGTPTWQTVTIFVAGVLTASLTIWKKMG", "experiment": "Activation of BAX in human A549 cells assessed as protein translocation by measuring increase in BAX protein level in mitochondrial fraction incubated for 24 hrs by Western blot analysis", "assay_type": "mitochondria", "conditions": "filed as activator, dose 5-40 µM"}, "[13]": {"experiment": "Metabolic stability in mouse liver microsomes assessed as parent compound remaining at 100 uM incubated for 60 mins in absence of NADPH by LC-MS/MS analysis"}, "Cytochrome P450 2D6": {"target": "Cytochrome P450 2D6 (Homo sapiens, UniProt P10635)", "sequence (P10635 whole entry)": "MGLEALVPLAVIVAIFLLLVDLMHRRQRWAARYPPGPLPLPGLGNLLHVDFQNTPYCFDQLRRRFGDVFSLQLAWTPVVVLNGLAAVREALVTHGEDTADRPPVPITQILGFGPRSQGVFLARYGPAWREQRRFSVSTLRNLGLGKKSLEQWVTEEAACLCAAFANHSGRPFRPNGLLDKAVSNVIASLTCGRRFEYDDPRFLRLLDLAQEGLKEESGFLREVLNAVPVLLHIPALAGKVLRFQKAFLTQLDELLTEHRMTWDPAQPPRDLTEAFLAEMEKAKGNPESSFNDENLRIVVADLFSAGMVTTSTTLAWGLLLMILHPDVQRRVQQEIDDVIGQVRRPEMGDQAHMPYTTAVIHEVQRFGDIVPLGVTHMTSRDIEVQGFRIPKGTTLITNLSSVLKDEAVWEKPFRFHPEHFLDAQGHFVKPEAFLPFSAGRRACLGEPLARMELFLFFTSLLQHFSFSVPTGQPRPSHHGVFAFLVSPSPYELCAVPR", "experiment": "Inhibition of CYP2D6 in human liver microsomes using dextromethorphan as substrate prewarmed for 10 mins followed by NADPH addition and measured after 10 mins by LC-MS/MS analysis"}, "[14]": {"experiment": "Metabolic stability in mouse liver microsomes assessed as parent compound remaining at 100 uM incubated for 60 mins in presence of NADPH by LC-MS/MS analysis"}, "[15]": {"experiment": "Metabolic stability in human liver microsomes assessed as parent compound remaining at 100 uM incubated for 60 mins in absence of NADPH by LC-MS/MS analysis"}, "A549 [16]": {"test_system": "A549", "experiment": "Induction of cell cycle arrest in human A549 cells assessed as accumulation of cells at G0/G1 phase at 2.5 uM incubated for 48 hrs by RNase/PI staining based flow cytometry analysis (reference value: 54.82%)", "assay_type": "functional"}, "A549 [17]": {"test_system": "A549", "experiment": "Induction of cell cycle arrest in human A549 cells assessed as accumulation of cells at S phase at 5 uM incubated for 48 hrs by RNase/PI staining based flow cytometry analysis (reference value: 26.01%)", "assay_type": "functional"}, "A549 [18]": {"test_system": "A549", "experiment": "Induction of apoptosis in human A549 cells assessed as dead cells at 10 uM incubated for 48 hrs by Annexin V-FITC/PI staining based flow cytometry analysis (reference value: 0.535%)", "assay_type": "functional"}},
  "note": "Calls of active or inactive are those of the source. The rule behind the calls is not given here.",
  "data": [
    {"smiles": "CN(C)C1CCN(C(=O)c2ccc(N3N=C(c4ccccc4)/C(=N/Nc4ccccc4)C3=O)cc2)CC1", "values": [
      {"measurement": "remaining at 2 h", "setting": "[1]", "value": 92.9, "unit": "%"},
      {"measurement": "Activity", "setting": "A549 [2]", "value": "Active"},
      {"measurement": "Activity", "setting": "A549 [3]", "value": 95.9, "unit": "%"},
      {"measurement": "half-life at 1 h, 100 µM", "setting": "in vitro", "value": "> 2.42", "unit": "h"},
      {"measurement": "IC50", "setting": "Cytochrome P450 2C19", "value": "> 50", "unit": "µM"},
      {"measurement": "Activity", "setting": "A549 [4]", "value": 63.73, "unit": "%"},
      {"measurement": "CLint", "setting": "[5]", "value": "< 9.6", "unit": "µL/min/mg"},
      {"measurement": "Activity", "setting": "A549 [6]", "value": "Active"},
      {"measurement": "Activity", "setting": "A549 [7]", "value": 10.6, "unit": "%"},
      {"measurement": "inhibition", "setting": "A549 [8]", "value": "Dose-Dependent Effect"},
      {"measurement": "remaining at 1 h, 100 µM", "setting": "[9]", "value": 96, "unit": "%"},
      {"measurement": "IC50", "setting": "Cytochrome P450 2C9", "value": "> 50", "unit": "µM"},
      {"measurement": "remaining at 10 min", "setting": "[10]", "value": 99.4, "unit": "%"},
      {"measurement": "IC50", "setting": "Cytochrome P450 1A2", "value": "> 50", "unit": "µM"},
      {"measurement": "GI50", "setting": "MV4-11", "value": 2.84, "unit": "µM"},
      {"measurement": "CLint", "setting": "[11]", "value": "< 9.6", "unit": "µL/min/mg"},
      {"measurement": "Activity", "setting": "[12]", "value": "Dose-Dependent Effect"},
      {"measurement": "remaining at 1 h, 100 µM", "setting": "[13]", "value": 96, "unit": "%"},
      {"measurement": "IC50", "setting": "Cytochrome P450 2D6", "value": "> 50", "unit": "µM"},
      {"measurement": "remaining at 1 h, 100 µM", "setting": "[14]", "value": 74.1, "unit": "%"},
      {"measurement": "remaining at 1 h, 100 µM", "setting": "[15]", "value": 102, "unit": "%"},
      {"measurement": "Activity", "setting": "A549 [16]", "value": 58.46, "unit": "%"},
      {"measurement": "Activity", "setting": "A549 [17]", "value": 27.84, "unit": "%"},
      {"measurement": "Activity", "setting": "A549 [18]", "value": 0.583, "unit": "%"}
    ]}
  ]
}
